From US20200016125A1, “GRANZYME B INHIBITOR COMPOSITIONS AND METHODS FOR THE PREVENTION AND/OR TREATMENT OF SKIN BLISTERING AND/OR PEELING” (The University of British Columbia, priority 2017, published 2020) come the findings set out here.

For test [1], the target named is T1, GzmB (Homo sapiens, UniProt P10144).
T1 construct: purchased EmeraldBio
Description: GzmB cleavage assay of integrin α6/β4 (α6 and β4 sub-units) with GzmB inhibitors. Format: biochemical. On the procedure:
(§1) For inhibition studies, prior to the addition of substrates to the reaction, GzmB was incubated in the presence of 100 μM Compound A for 1 hour at 37° C. After 24 hours incubation, proteins were denatured, separated on a 4%-20% SDS-PAGE gel (for α6/β4). […] For inhibition studies, prior to the addition of substrates to the reaction, GzmB was incubated in the presence of 100 μM Compound A for 1 hour at 37° C. After 24 hours incubation, nidogen-2 protein was denatured and separated on a 7.5% SDS-PAGE gel. Cleavage was detected by anti-nidogen-2 antibody (R&D Systems). […] For inhibition studies, prior to the addition of substrates to the reaction, GzmB was incubated in the presence of 100 μM Compound A for 1 hour at 37° C. After 24 hours incubation, collagen VII protein was denatured and separated on a 10% SDS-PAGE gel. Cleavage was detected by anti-collagen VII antibody (ABCAM, Toronto, ON).
(§2) The recombinant human integrin α6/β4 (α6 a.a. 24-878, β4 a.a. 28-710, R&D Systems, Minneapolis, Minn.), collagen VII (199-482 a.a., MyBiosource, San Diego, Calif.), collagen XVII (a.a. 490-1497, generous gift from Dr. Claus-Werner Franzke), and collagen I (Novus Biologicals, Littleton, Colo.) were incubated for 24 hours at 37° C. in 200 nM purified human GzmB (EmeraldBio, Bainbridge Island, Wash.). For inhibition studies, prior to the addition of substrates to the reaction, GzmB was incubated in the presence of 600 nm serpin A3N (generous gift from Dr. Chris R. Bleackley, University of Alberta, Edmonton, AB, Canada) or 100 NM of the small molecule inhibitor Compound 20 (courtesy of the Centre for Drug Research and Development, Vancouver, BC) for 1 hour at 37° C. […] Cleavage was detected by Western Blot using anti-human integrin α6 sub-unit (ABCAM), anti-human integrin β4 sub-unit (R&D Systems, Minneapolis, Minn.), anti collagen VII (ABCAM), and anti-human collagen XVII (generous gift from Dr. Claus-Werner Franzke) and imaged using a Li-Cor Odissey® FC (Li-Cor, Lincoln, Nebr.). […]

The target in test [2] is T1, GzmB. Nature of the test: GzmB-mediated cleavage of nidogen-2 with inhibitor (Western Blot). Conditions: FIG. 22B; nidogen-2 residues 31-1375, 500 ng, 200 nM purified human GzmB, 100 μM Compound A. Format: biochemical. The method, then: as §1
Test [3] addresses T1, GzmB. Nature of the test: GzmB cleavage assay of collagen VII with GzmB inhibitors (Western Blot). Format: biochemical. Conditions: for inhibition of GzmB-mediated collagen VII cleavage: FIG. 3, collagen VII 500 ng, 200 mM of GzmB, 24 hours 37° C., GzmB incubated with inhibitor 1 hour before substrate. The method, then: Addition of GzmB inhibitors (Serpin A3N, Compound 20, Compound A) prevented GzmB-mediated collagen VII cleavage. Bands indicating fragments are labeled. GzmB cleavage assay was performed in 40 μL of PBS. Briefly, collagen VII (500 ng) was incubated with […] of GzmB for 24 hours at 37° C. For inhibition, GzmB was incubated with Compound 20, Serpin A3N and Compound A for 1 hour at 37° C. prior to the addition of collagen VII. After 24 hours, all samples were loaded onto a 10% SDS-PAGE, blotted on a PVDF membrane and incubated with a primary antibody specific for collagen VII (rabbit anti-collagen VII, Abcam plc) overnight at 4° C., and then with a secondary labeled anti-rabbit antibody for 1 hour at room temperature.
as §1
A GzmB cleavage assay was performed in 40 μL of PBS. Briefly, collagen VII (500 ng) was incubated with […] of GzmB for 24 hours at 37° C. For inhibition, GzmB was incubated with Compound 20, Serpin A3N and Compound A for 1 hour at 37° C. prior to the addition of collagen VII. After 24 hours all samples were loaded onto a 10% SDS-PAGE, blotted on PVDF membrane and incubated with a primary antibody specific for collagen VII (rabbit anti-collagen VII, Abcam plc) overnight at 4° C., and then with a secondary labeled anti-rabbit antibody for 1 hour at room temperature.
The recombinant human integrin α6/β4 (α6 a.a. 24-878, β4 a.a. 28-710, R&D Systems, Minneapolis, Minn.), collagen VII (199-482 a.a., MyBiosource, San Diego, Calif.), collagen XVII (a.a. 490-1497, generous gift from Dr. Claus-Werner Franzke), and collagen I (Novus Biologicals, Littleton, Colo.) were incubated for 24 hours at 37° C. in 200 nM purified human GzmB (EmeraldBio, Bainbridge Island, Wash.). For inhibition studies, prior to the addition of substrates to the reaction, GzmB was incubated in the presence of 600 nm serpin A3N (generous gift from Dr. Chris R. Bleackley, University of Alberta, Edmonton, AB, Canada) or 100 NM of the small molecule inhibitor Compound 20 (courtesy of the Centre for Drug Research and Development, Vancouver, BC) for 1 hour at 37° C. After the 24 hours incubation, proteins were denatured, separated on a 4-20% (for integrin α6/β4), 10% (for collagen VII), 8-10% (for collagen XVII), or 7.5% (for collagen I) SDS-polyacrylamide gel. Cleavage was detected by Western Blot using anti-human integrin α6 sub-unit (ABCAM), anti-human integrin β4 sub-unit (R&D Systems, Minneapolis, Minn.), anti collagen VII (ABCAM), and anti-human collagen XVII (generous gift from Dr. Claus-Werner Franzke) and imaged using a Li-Cor Odissey® FC (Li-Cor, Lincoln, Nebr.). […]
In general terms: A western blot detects proteins with antibodies after separation by electrophoresis.

Test [4] has as its system diabetic mouse model, burn injury to induce blistering. Description: Burn injury blistering in diabetic mouse model. The format is in vivo. Conditions: for blistering compared to saline-only treatment: FIG. 8B, 30-day study. The method, then:
FIGS. 8A through 8C provide evidence Compound A, a GzmB inhibitor, prevents blistering. Mice were exposed to burn injury by heating a steal rod for 6 seconds to 100° C. to induce blistering. Two independent experiments were run: In FIG. 8A, Compound A was added daily for 30 days. […] In FIG. 8B, Compound A in PBS (3.6 mg/mL) was administered daily by subcutaneous injection and in a gel (3.6 mg/mL) administered daily by topical application.
In this example mice were exposed to burn injury by heating a steal rod for 6 seconds to 100° C. to induce blistering.
There were two separate experiments run. Experiment 1 was a 30-day 3-arm study. Arm 1 consisted of treating the mouse daily with Compound A (3.6 mg/mL) in PBS by subcutaneous injection. In arm 2, Compound A (3.6 mg/mL) was administered to the mouse by daily topical application in the gel. In arm 3, the mouse was administered daily by subcutaneous injection saline as a control.
Experiment 2 was a 25-day 2-arm study. Arm 1 consisted of administering daily, through topical application, Compound A (3.6 mg/mL) in the gel. Arm 2 consisted of administering daily the vehicle gel through topical application as a control.

Test [5] concerns the target T1, GzmB. Description: GzmB-mediated cleavage of collagen XVII with inhibitors (Western Blot). Format: biochemical. As to conditions: FIG. 16A, collagen XVII a.a. 490-1497, 200 nM GzmB, pre-incubation with Compound 20 or serpin A3N. On the procedure: Black arrow indicates cleavage fragment and * indicates full-length protein. GzmB produces a cleavage band, and this cleavage is abolished by the addition of Com20 or S3AN. […] Dotted lines indicate separation between the epidermis and the dermis. Scale bars represent […].
as §2

T1 sequence (P10144 21-247): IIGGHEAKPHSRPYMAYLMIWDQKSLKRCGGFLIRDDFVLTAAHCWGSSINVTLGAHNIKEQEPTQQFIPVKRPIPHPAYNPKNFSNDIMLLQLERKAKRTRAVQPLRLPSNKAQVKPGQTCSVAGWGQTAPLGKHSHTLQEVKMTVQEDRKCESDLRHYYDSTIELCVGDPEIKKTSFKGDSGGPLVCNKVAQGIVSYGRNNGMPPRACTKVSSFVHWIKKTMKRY

As for `CC[C@H](C)[C@H](NC(=O)CCC(=O)O)C(=O)NCC(=O)N1C(=O)N(C2CCCCC2)C[C@H]1C(=O)NCc1nn[nH]n1` [Compound A, 4-(((2S,3S)-1-((2-((S)-5-(((2H-tetrazol-5-yl)methyl)carbamoyl)-3-cyclohexyl-2-oxoimidazolidin-1-yl)-2-oxoethyl)amino)-3-methyl-1-oxopentan-2-yl)amino)-4-oxobutanoic acid], the “inhibition of GzmB-mediated cleavage of α6β4 integrin” value in test [1] (FIG. 22A, Coomassie staining, 200 nM purified human GzmB, 100 μM Compound A pre-incubated 1 hour) is given as “can prevent the cleavage”. For the same molecule, the “inhibition of GzmB-mediated cleavage of nidogen-2” value in test [2] is listed as “this cleavage was prevented”. The “inhibition of GzmB-mediated collagen VII cleavage” value in test [3] is “prevented”. The “inhibition of GzmB-mediated cleavage of collagen VII” value in test [3] (FIG. 22C, collagen VII residues 199-482, 500 ng, 200 nM purified human GzmB, 100 μM Compound A pre-incubated 1 hour) is on record as “this cleavage is prevented”. Moreover, the blistering result in test [4] (FIG. 8A, mice, burn injury, Compound A daily for 30 days versus saline-treated skin) is “Blistering is prevented”. Moreover, the “blistering compared to saline-only treatment” value is given as “reduce blistering” in test [4] (Compound A in PBS 3.6 mg/mL, daily subcutaneous injection) and “reduce blistering” in test [4] (Compound A in gel 3.6 mg/mL, daily topical application). Besides, the “blistering compared to gel alone” value in test [4] (FIG. 8C, Compound A in gel 3.6 mg/mL, daily topical application, 25-day study) was “reduced blistering”.

B1: Serpin A3N: an irreversible serine protease inhibitor used as GzmB inhibitor (protein, UniProt Q91WP6 21-418, looked up)
Serine protease inhibitor A3N: FPDGTLGMDAAVQEDHDNGTQLDSLTLASINTDFAFSLYKELVLKNPDKNIVFSPLSISAALAVMSLGAKGNTLEEILEGLKFNLTETSEADIHQGFGHLLQRLNQPKDQVQISTGSALFIEKRQQILTEFQEKAKTLYQAEAFTADFQQPRQAKKLINDYVRKQTQGMIKELVSDLDKRTLMVLVNYIYFKAKWKVPFDPLDTFKSEFYAGKRRPVIVPMMSMEDLTTPYFRDEELSCTVVELKYTGNASALFILPDQGRMQQVEASLQPETLRKWKNSLKPRMIDELHLPKFSISTDYSLEDVLSKLGIREVFSTQADLSAITGTKDLRVSQVVHKAVLDVAETGTEAAAATGVKFVPMSAKLYPLTVYFNRPFLIMIFDTETEIAPFIAKIANPK
For B1, in test [1] (FIG. 13A, 200 nM GzmB, Western Blot, Compound 20 100 μM, serpin A3N 600 nM), the “inhibition of GzmB-mediated cleavage of the α6 integrin subunit” value is “prevented the cleavage”. Also, the “inhibition of GzmB-mediated cleavage of β4 integrin sub-unit” value in test [1] (FIG. 14A, 200 nM GzmB, Western Blot, Compound 20 100 μM, serpin A3N 600 nM) is “prevented the cleavage”. Besides, the “inhibition of GzmB-mediated cleavage of collagen XVII (NC16 ectodomain)” value in test [5] is “prevented NC16 cleavage”; in test [5] (listed as S3AN), “abolished”. Further, the “inhibition of GzmB-mediated collagen VII cleavage” value in test [3] was “prevented”. The “inhibition of GzmB-mediated cleavage of collagen VII” value in test [3] (FIG. 15A, collagen VII a.a. 199-482, 200 nM purified human GzmB, 24 hours, pre-incubation with 600 nm serpin A3N or 100 NM Compound 20) is “prevented the appearance of both ˜20 and 25 kDa bands”; in test [3] (FIG. 15A, collagen VII a.a. 199-482, 200 nM purified human GzmB, 24 hours, pre-incubation with 600 nm serpin A3N or 100 NM Compound 20, listed as S3AN), “abolished”.
